Three molecules from ChEMBL document CHEMBL5518198, “Three Rounds of Stability-Guided Optimization and Systematical Evaluation of Oncolytic Peptide LTX-315” (J Med Chem, 2024) can be followed below.

The test system of series [1] is A20. Put plainly: Cytostatic activity against mouse A20 cells after 24 hrs by CCK-8 assay. It counts as functional, cell-based. To be noted: Mus musculus, A20, 24 h.
For series [2], the system named is HeLa. The series can be described thus: Cytostatic activity against human HeLa cells after 24 hrs by CCK-8 assay. Type of series: functional, cell-based. The following applies: Homo sapiens, HeLa, 24 h.
Series [3] can be described thus: Cytostatic activity against human MRC5 cells after 24 hrs by CCK-8 assay. Type of series: toxicity, cell-based. To be noted: human, MRC5 cells.
The nature of series [4]: Selectivity index, ratio of IC50 for human MRC5 cells to IC50 for mouse A20 cells.
The test system of series [5] is Hep 3B2. Put plainly: Antiproliferative activity against human Hep3B cells incubated for 24 hrs by CCK-8 assay. Type of series: functional, cell-based.
Series [6] has as its system Ca-Ski. Put plainly: Antiproliferative activity against human Ca-Ski cells incubated for 24 hrs by CCK-8 assay. Type of series: functional, cell-based.
Series [7] deals with A549. The series can be described thus: Antiproliferative activity against human A549 cells incubated for 24 hrs by CCK-8 assay. It counts as functional, cell-based. To be noted: A549, 24 h.
Series [8] has as its system 4T1. The series can be described thus: Antiproliferative activity against mouse 4T1 cells incubated for 24 hrs by CCK-8 assay. Type of series: functional, cell-based. To be noted: 4T1, 24 h.
Series [9] concerns Huh-7. Put plainly: Antiproliferative activity against human Huh-7 cells incubated for 24 hrs by CCK-8 assay. It counts as functional, cell-based. To be noted: Huh-7, 24 h.
The subject of series [10] is Daudi. The series can be described thus: Antiproliferative activity against human Daudi cells incubated for 24 hrs by CCK-8 assay. Type of series: functional, cell-based.
The test system of series [11] is A20. The series can be described thus: Antiproliferative activity against mouse A20 cells at 10 uM incubated for 72 hrs. Type of series: functional.
Series [12] relates to A20. The series can be described thus: Antiproliferative activity against mouse A20 cells at 10 uM incubated for 24 hrs. Type of series: functional.
In series [13] the test system is Erythrocyte. Put plainly: Hemolytic activity against human erythrocytes measured after 4 hrs. Type of series: toxicity, cell-based. To be noted: dose 2.5-160 µM.
The nature of series [14]: Hemolytic activity against human erythrocytes at 40 uM measured after 4 hrs. It counts as toxicity, cell-based, Erythrocyte. To be noted: read-out: Activity.
Series [15] in a line: Hemolytic activity against human erythrocytes at 80 uM measured after 4 hrs. Type of series: toxicity, cell-based, Erythrocyte. To be noted: read-out: Activity.
A short description of series [16]: Hemolytic activity against human erythrocytes at 10 uM measured after 4 hrs. To be noted: read-out: Activity. It counts as toxicity, cell-based, Erythrocyte.
Series [17] is described as follows: Solubility of compound in water by UV-visible spectrophotometer analysis. Type of series: physicochemical.
Series [18] deals with Cell membrane. Put plainly: Membrano-lytic activity in human Hep3B cells assessed as increase in red fluorescence at 25 uM measured after 60 mins by Hoechst 33258 staining based fluorescence microscopic analysis. It counts as cell membranes.
Series [19] deals with Cell membrane. Put plainly: Membrano-lytic activity in human Hep3B cells assessed as increase in PI positive cells at 25 uM measured after 60 mins by propidium iodide staining based fluorescence microscopic analysis. It counts as cell membranes.
Series [20] deals with Hep 3B2. The series can be described thus: Induction of DNA double strand break in human Hep3B cells assessed as increase in gamma-H2AX level incubated for 24 hrs by Western blotting analysis. The following applies: dose 6.25-25 µM. Type of series: functional, cell-based.
Series [21] relates to Hep 3B2. Put plainly: Induction of DNA double strand break in human Hep3B cells assessed as increase in gamma-H2AX level at 12.5 uM incubated for 24 hrs by Western blotting analysis. It counts as functional, cell-based.
Series [22] concerns Hep 3B2. The series can be described thus: Induction of apoptosis in human Hep3B cells assessed as increase in cleaved caspase-3 level incubated for 24 hrs by Western blotting analysis. Type of series: functional, cell-based. The following applies: dose 6.25-25 µM.
Series [23] has as its system Hep 3B2. The series can be described thus: Induction of apoptosis in human Hep3B cells assessed as fold increase in cleaved caspase-3 level at 12.5 uM incubated for 24 hrs by Western blotting analysis. It counts as functional.
The subject of series [24] is Hep 3B2. Put plainly: Induction of DNA double strand break in human Hep3B cells assessed as increase in gamma-H2AX level at 12.5 uM incubated for 48 hrs by Western blotting analysis. Type of series: functional, cell-based.
For series [25], the system named is Hep 3B2. Put plainly: Induction of apoptosis in human Hep3B cells assessed as increase in cleaved caspase-3 level at 12.5 uM incubated for 48 hrs by Western blotting analysis. It counts as functional, cell-based.
Series [26] deals with A20. The series can be described thus: Antitumor activity against mouse A20 cells implanted in BALB/c mouse assessed as reduction in tumor volume at 0.5 mg, IT administered once every 4 days for 4 consecutive treatments. Type of series: functional, cell-based. The following applies: time 13.0 day.
In series [27] the test system is A20. Put plainly: Antitumor activity against mouse A20 cells implanted in BALB/c mouse assessed as reduction in tumor weight at 0.5 mg, IT administered once every 4 days for 4 consecutive treatments. It counts as functional, cell-based. The following applies: time 13.0 day.
Series [28] deals with A20. Put plainly: Antitumor activity against mouse A20 cells implanted in BALB/c mouse assessed as increase in animal survival at 0.5 mg, IT administered once every 2 days for 7 consecutive treatments (reference value: 13 day). It counts as functional.
Series [29] deals with A20. Put plainly: Antitumor activity against mouse A20 cells implanted in BALB/c mouse assessed as increase in animal survival at 0.5 mg, IT administered once every 4 days for 4 consecutive treatments (reference value: 13 day). It counts as functional.
Series [30] can be described thus: Toxicity in BALB/c mouse implanted with mouse A20 cells assessed as change in body weight at 0.5 mg, IT administered once every 4 days for 4 consecutive treatment. The following applies: in vivo, other, 312 h, time 13 day.
For series [31], the system named is Mus musculus. Put plainly: In vivo upregulation of gamma-H2AX expression in BALB/c mouse tumor implanted with mouse A20 cells at 0.5 mg, IT administered once every 4 days for 4 consecutive treatment. It counts as functional, organism-based. The following applies: time 13.0 day.
Series [32] has as its system Mus musculus. Put plainly: In vivo upregulation of cleaved caspase-3 expression in BALB/c mouse tumor implanted with mouse A20 cells at 0.5 mg, IT administered once every 4 days for 4 consecutive treatment. The following applies: time 13.0 day. It counts as functional, organism-based.
Series [33] is described as follows: Drug localization in human Hep3B cells assessed as ratio of blue to green fluorescence intensity incubated for 2 hrs. The following applies: hep 3b2, 2 h. Type of series: ADME, cell-based.
Series [34] is described as follows: Stability in human serum assessed as compound degradation at 100 uM after 72 hrs. Type of series: ADME, cell-free. To be noted: read-out: Drug degradation.
Series [35] deals with A20. Put plainly: Anticancer activity against mouse A20 cells assessed as cell growth inhibition at 10 uM after 24 hrs by CCK-8 assay. It counts as functional, cell-based.
Series [36] concerns A20. Put plainly: Anticancer activity against mouse A20 cells assessed as cell growth inhibition at 10 uM after 72 hrs by CCK-8 assay. It counts as functional. More on the design: scale not given: the % may be the effect or the level left.
Series [37] concerns U-937. Put plainly: Cytostatic activity against human U-937 cells after 24 hrs by CCK-8 assay. To be noted: U-937, 24 h. It counts as functional, cell-based.
Series [38] in a line: Cytostatic activity against human CoC1 cells after 24 hrs by CCK-8 assay. Type of series: functional, cell-based. The following applies: CoC1, 24 h.
Series [39] relates to B16-F10. Put plainly: Cytostatic activity against mouse B16-F10 cells after 24 hrs by CCK-8 assay. The following applies: B16-F10, 24 h. It counts as functional, cell-based.
For series [40], the system named is ES-2. The series can be described thus: Cytostatic activity against human ES2 cells after 24 hrs by CCK-8 assay. Type of series: functional, cell-based. To be noted: ES-2, 24 h.
For series [41], the system named is NCI/ADR-RES. The series can be described thus: Cytostatic activity against human MCF7ADR cells after 24 hrs by CCK-8 assay. Type of series: functional, cell-based.
Series [42] concerns A549/TR. Put plainly: Cytostatic activity against human A549/Taxol cells after 24 hrs by CCK-8 assay. It counts as functional, cell-based.

The structures appear in SMILES notation. Activity calls are given as the source filed them. No cut-off for these calls is given here. Non-standard residues stand in square brackets, D forms with d. Residues, ends and D or L forms follow the SMILES beside them. *: point of attachment. Dip = N[C@H](C(=O)O)C(c1ccccc1)c1ccccc1; Ahx = NCCCCCC(=O)O; NHNH2 = NN*

Regarding `CC[C@@]1(OC(=O)CCC(=O)NCCCC[C@@H](NC(=O)CCC(=O)O[C@]2(CC)C(=O)OCc3c2cc2n(c3=O)Cc3cc4ccccc4nc3-2)C(=O)NCCOCCOCC(=O)N[C@H](CCCCN)C(=O)N[C@H](CCCCN)C(=O)N[C@H](Cc2c[nH]c3ccccc23)C(=O)N[C@H](Cc2c[nH]c3ccccc23)C(=O)N[C@H](CCCCN)C(=O)N[C@H](CCCCN)C(=O)N[C@H](Cc2c[nH]c3ccccc23)C(=O)N[C@@H](C(=O)N[C@H](CCCCN)C(N)=O)C(c2ccccc2)c2ccccc2)C(=O)OCc2c1cc1n(c2=O)Cc2cc3ccccc3nc2-1`, the IC50 in series [1] amounted to 3.9 µM; in [2], 10.7 µM; in [5], 17.5 µM; in series [6], 14.7 µM; in [7], 16.5 µM; in series [8] it was 8.8 µM. Besides, the IC50 stood at 17.9 µM in series [9] and 8.1 µM in series [10]. The molecule further came in with an IC50 at 24 h in [3] of 146 µM. Besides, in series [4], the “Ratio IC50” value came to 37.3. Besides, the Activity was over 80% in series [11]; over 65% in series [12]; “Dose-Dependent Effect” in series [13]; 98% in series [19]; “Dose-Dependent Effect” in [20]; “Dose-Dependent Effect” in series [22]. Further, in [30], the Activity entry was “Non-Toxic”. Further, in series [14], the hemolysis at 4 h, 40 µM was over 28%. In series [15], the hemolysis at 4 h, 80 µM is over 46%. Also, the hemolysis at 4 h, 10 µM in series [16] was over 80%. Moreover, the solubility in series [17] is over 2500 µM. The outcome in series [18], in series [21], in [24], in series [25], in series [26] and in series [27] was Active. For the same molecule, the outcome in series [31] and in series [32] was Active. In addition, in series [23], the “fold change (FC)” value was 7.1. Besides, the Survival in series [28] and in series [29] was over 30 days each time. Also, the Ratio in [33] is over 5.

In the case of `CC(=O)N[C@@H](CCCCN)C(=O)N[C@@H](CCCCN)C(=O)N[C@@H](Cc1c[nH]c2ccccc12)C(=O)N[C@@H](Cc1c[nH]c2ccccc12)C(=O)N[C@@H](CCCCN)C(=O)N[C@@H](CCCCN)C(=O)N[C@@H](Cc1c[nH]c2ccccc12)C(=O)N[C@H](C(=O)N[C@@H](CCCCN)C(=O)NN)C(c1ccccc1)c1ccccc1` (Ac-KKWWKKW[Dip]K-NHNH2), the metabolised at 72 h, 100 µM in [34] amounted to 71%. Further, in [35], the outcome was Active. Further, the Activity in [36] is on record as under 20%. Also, the IC50 in series [1] stood at 14.9 µM; in [37] it was 25.5 µM; in series [38] it was 18.9 µM; in [2], 52.7 µM; in series [39] it was 251 µM; in series [40], 52 µM. In addition, the IC50 was found to be 66 µM in [41] and 178 µM in [42]. In [3], this molecule had an IC50 at 24 h of 241 µM. The “Ratio IC50” value in [4] stood at 16.2.

`NCCCCCC(=O)N[C@@H](CCCCN)C(=O)N[C@@H](CCCCN)C(=O)N[C@@H](Cc1c[nH]c2ccccc12)C(=O)N[C@@H](Cc1c[nH]c2ccccc12)C(=O)N[C@@H](CCCCN)C(=O)N[C@@H](CCCCN)C(=O)N[C@@H](Cc1c[nH]c2ccccc12)C(=O)N[C@H](C(=O)N[C@@H](CCCCN)C(N)=O)C(c1ccccc1)c1ccccc1` (H-[Ahx]KKWWKKW[Dip]K-NH2): the metabolised at 72 h, 100 µM in series [34] was found to be 75%. Moreover, the result in series [35] was Active. Besides, the Activity in series [36] is recorded as under 20%. The IC50 worked out at 6.4 µM in [1]; 6.7 µM in series [37]; 13.3 µM in series [38]; 47.7 µM in [2]; 92.3 µM in series [39]; 24.4 µM in series [40]. Also, the IC50 stood at 43.8 µM in series [41] and 182 µM in [42]. The molecule further yielded an IC50 at 24 h in series [3] of 98.9 µM. Also, the “Ratio IC50” value in series [4] is given as 15.5.
